# Laboratory results published in US20050064383A1, “Methods and apparatus for producing gender enriched sperm” (priority 2000, published 2005).
# Experiments:
# bull sperm [1] = test: Overnight low temperature staining of bull sperm with Hoechst 33342, separation into X- and Y-sperm by flow cytometry; assay type: cell-based; settings: citrate buffer pH 6.9
# Description: (§1) Bull sperm in citrate buffer at pH 6.9-7.0 is sent from collection facility to sorter facility by same-day delivery at 18° C. Upon receipt the sperm is divided into three portions and stored and stained overnight with Hoechst 33342 dye at 18° C., 20° C., or 22° C. (all in citrate buffer at pH 6.9).
# bull sperm [2] = test: Staining of bull sperm with Hoechst 33342 in TEST buffer, split index on Coulter Epics flow cytometer; assay type: cell-based
# Description: Bull semen was collected from a sexually mature bull using an artificial vagina and the sample was diluted with citrate buffer (pH 7.0) at 1 part semen: 3 parts buffer. The sample was transferred to the flow cytometry laboratory at 18° C. The concentration of the sample is determined using a hemocytometer and the cells were diluted with an appropriate amount of TEST buffer (pH 7.35) to obtain 100 million sperm per mL. Ten microliters of a stock concentration (5 mg/ml in dH2O) of Hoechst 33342 was added to the sample of sperm and the cells were incubated at 25° C. for up to 4 hours. A second population of cells was handled in like manner but was incubated at 35° C. for 1 hour to serve as a positive control. A third population of cells was handled in like manner but the buffer pH is 7.2 instead of pH 7.35 to determine if buffer pH influences uptake of Hoechst 33342. At one-hour intervals for up to 4 hours, 200 μL micro aliquots were removed from the samples and evaluated using a Coulter Epics flow cytometer. The split index information was collected for each sample per treatment group. [table]
# bull sperm [3] = test: Staining of bull sperm with Hoechst dye at 24° C. in citrate or HEPES buffer, separation by flow cytometry; assay type: cell-based
# Description: Bull sperm are collected at a collection facility, extended in citrate buffer pH 6.9 and sent at 18° C. by overnight express mail to a sorting facility. The sample is divided into two portions, centrifuged to separate sperm from supernatant, and each portion resuspended respectively in citrate buffer and HEPES buffer, both at pH 7.4. 0.1% BSA is present in the HEPES buffer.
# [4] = Buffer solubility by HPLC; settings: maximum measurable 90 micromolar
# Description: One microliter (μL) of the stock solution was then added to 110 μL of aqueous buffer solution placed in an HPLC (high performance liquid chromatography) vial and mixed by inverting a number of times. The samples were allowed to stand for 30 minutes and then centrifuged for 30 minutes. The centrifugation is required to deposit suspended material that could interfere with the analysis to the side of the vial. The solutions were then analyzed by HPLC by sampling the solution without touching the vial bottom or sides. Shown below are the measured quantities remaining in solution in the various buffers.
# bull sperm [5] = test: Sperm motility/viability after overnight incubation with HO dye; assay type: cell-based; settings: overnight incubation at 18, 20 or 22° C., 0 hours
# Description: as §1
compound,measurement,setting,value
CCOc1ccc(-c2nc3ccc(-c4nc5ccc(N6CCN(C)CC6)cc5[nH]4)cc3[nH]2)cc1 [Hoechst 33342],separation of Y- and X-bearing sperm by flow cytometry,"bull sperm [1]; stained 18° C. o/n, 0 hr incubation @ RT",no separation
same,separation of Y- and X-bearing sperm by flow cytometry,"bull sperm [1]; stained 18° C. o/n, 1.5 hr incubation @ RT",no separation
same,separation of Y- and X-bearing sperm by flow cytometry,"bull sperm [1]; stained 18° C. o/n, 5.0 hr incubation @ RT",no separation
same,separation of Y- and X-bearing sperm by flow cytometry,"bull sperm [1]; stained 20° C. o/n, 0 hr incubation @ RT",no separation
same,separation of Y- and X-bearing sperm by flow cytometry,"bull sperm [1]; stained 20° C. o/n, 1.5 hr incubation @ RT",no separation
same,separation of Y- and X-bearing sperm by flow cytometry,"bull sperm [1]; stained 20° C. o/n, 5.0 hr incubation @ RT",no separation
same,separation of Y- and X-bearing sperm by flow cytometry,"bull sperm [1]; stained 22° C. o/n, 0 hr incubation @ RT",no separation
same,1 h Split index,bull sperm [2]; 25° C. in TEST pH 7.2,0%
same,2 h split index,bull sperm [2]; 25° C. in TEST pH 7.2,0%
same,3 h split index,bull sperm [2]; 25° C. in TEST pH 7.2,0%
same,4 h split index,bull sperm [2]; 25° C. in TEST pH 7.2,0%
same,1 h Split index,bull sperm [2]; 25° C. in TEST pH 7.35,0%
same,2 h split index,bull sperm [2]; 25° C. in TEST pH 7.35,0%
same,3 h split index,bull sperm [2]; 25° C. in TEST pH 7.35,10%
same,4 h split index,bull sperm [2]; 25° C. in TEST pH 7.35,30%
same,1 h Split index,"bull sperm [2]; 35° C. control (positive control), 1 hour",30%
same,Sort results after 2.5 h incubation at room temperature (24° C.),"bull sperm [3]; Sperm in HEPES buffer, pH 7.4, 0.1% BSA",Sperm were separated into X and Y
same,Sort results after 2.5 h incubation at room temperature (24° C.),"bull sperm [3]; Sperm in NaCitrate buffer, pH 7.4",No separation into X and Y
same,quantity remaining in solution (solubility),[4]; HEPES Buffer pH 6.85,79 µM
same,quantity remaining in solution (solubility),[4]; HEPES Buffer pH 7.02,73 µM
same,quantity remaining in solution (solubility),[4]; HEPES Buffer pH 7.23,27 µM
same,quantity remaining in solution (solubility),[4]; HEPES Buffer pH 7.36,23 µM
same,quantity remaining in solution (solubility),[4]; HEPES Buffer pH 7.52,36 µM
same,quantity remaining in solution (solubility),[4]; TES Buffer pH 6.85,79 µM
same,quantity remaining in solution (solubility),[4]; TES Buffer pH 6.98,80 µM
same,quantity remaining in solution (solubility),[4]; TES Buffer pH 7.19,78 µM
same,quantity remaining in solution (solubility),[4]; TES Buffer pH 7.34,75 µM
same,quantity remaining in solution (solubility),[4]; TES Buffer pH 7.54,57 µM
same,quantity remaining in solution (solubility),[4]; Tris Buffer pH 6.76,34 µM
same,quantity remaining in solution (solubility),[4]; Tris Buffer pH 6.95,42 µM
same,quantity remaining in solution (solubility),[4]; Tris Buffer pH 7.15,49 µM
same,quantity remaining in solution (solubility),[4]; Tris Buffer pH 7.36,22 µM
same,quantity remaining in solution (solubility),[4]; Tris Buffer pH 7.53,15 µM
same,effect of prolonged exposure to dye medium on sperm viability (motility),bull sperm [5],does not compromise sperm viability
